From patent US20040023978A1, “Active salt forms with tyrosine kinase activity” (priority 2002, published 2004)
Like-named read-outs stand apart in the source and are kept apart here.

Assays:
[1] = Hygroscopicity, step isotherm at 25° C.; type: physicochemical; details: 90-95% RH
Method: The hygroscopicity of the mesylate salt was determined at 25° C. using a step isotherm program for relative humidities from 0 to 95% RH following drying at 40° C./0%RH for two hours.

[2] = Stability of the crystal form (XRPD, hot-stage XRPD)
From the text: The mesylate salt (Form A) was further studied using hot-stage XRPD. […] The dehydration could also be achieved by suspending the mesylate monohydrate in hot acetonitrile.

[3] = Solubility at room temperature (HPLC isocratic method); type: physicochemical

solubility ([3]; aqueous with cosolvent or surfactant or cyclodextrin, thermodynamic from solid, 10% HP-βCD, pH adjusted with 0.1 N HCl to about pH 3, room temperature, read-out: Solubility) [mg/mL] | solubility ([3]; aqueous with cosolvent or surfactant or cyclodextrin, thermodynamic from solid, 15% HP-βCD, pH adjusted with 0.1 N HCl to about pH 3, room temperature, read-out: Solubility) [mg/mL] | solubility ([3]; aqueous with cosolvent or surfactant or cyclodextrin, thermodynamic from solid, 20% HP-βCD, pH adjusted with 0.1 N HCl to about pH 3, room temperature, read-out: Solubility) [mg/mL] | solubility ([3]; aqueous with cosolvent or surfactant or cyclodextrin, thermodynamic from solid, 25% HP-βCD, pH adjusted with 0.1 N HCl to about pH 3, room temperature, read-out: Solubility) [mg/mL] | solubility ([3]; aqueous with cosolvent or surfactant or cyclodextrin, thermodynamic from solid, 25% PEG/10% EtOH, room temperature, read-out: Solubility) [mg/mL] | solubility ([3]; aqueous with cosolvent or surfactant or cyclodextrin, thermodynamic from solid, 30% PG/10% EtOH, room temperature, read-out: Solubility) [mg/mL] | solubility ([3]; organic solvent or mixture, thermodynamic from solid, Ethanol, room temperature, read-out: Solubility) [mg/mL] | solubility ([3]; organic solvent or mixture, thermodynamic from solid, IPA, room temperature, read-out: Solubility) [mg/mL] | solubility ([3]; organic solvent or mixture, thermodynamic from solid, PEG, room temperature, read-out: Solubility) [mg/mL] | solubility ([3]; organic solvent or mixture, thermodynamic from solid, PG, room temperature, read-out: Solubility) [mg/mL] | solubility ([3]; thermodynamic from solid, water, room temperature (Table I), read-out: Solubility) [mg/mL] | solubility ([3]; water (text b274), read-out: solubility in water) [mg/mL] | Compound | weight gain [1] | stability of the form under ambient conditions ([2]; ambient conditions overnight) | behaviour of the aqueous solution on aging ([2]; water, aged for two days, recovered solid by XRPD the monohydrate (Form A))
 |  |  |  |  |  |  |  |  |  |  |  | 1-({2-[(5-cyano-1,3-thiazol-2-yl)amino]pyridin-. 4-yl}methyl)-4-[(methylamino)carbonyl]piperazin-1-ium methanesulfonate [dehydrated mesylate salt (Form B)] | about 1.2 % wt. | stable | a white precipitate was noticed
27.1 | 35.3 | 40.7 | 45 | 11.6 | 13.6 | 0.98 | 0.64 | 1.41 | 30.4 | 6.65 | 4.7 | CNC(=O)N1CCN(Cc2ccnc(Nc3ncc(C#N)s3)c2)CC1.CS(=O)(=O)O [mesylate salt (Form A), 1-({2-[(5-cyano-1,3-thiazol-2-yl)amino]pyridin-4-yl}methyl)-4-[(methylamino)carbonyl]piperazin-1-ium methanesulfonate] |  |  | 
